ChEMBL document CHEMBL1201862, “PubChem BioAssay data set” (2004)
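Method: 48-hour compound exposure of cells in 96-well plates, five concentrations, linear interpolation of endpoints. The concentration for 50% growth inhibition is given as GI50.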 Activity calls are given as the source filed them. No stated cut-off is given here; in the data, active = GI50 up to about 1.1 µM and inactive = higher.

Key:
Assay in all cases: DTP human tumour cell line panel, 48 h
[1] = test system: EKVX
[2] = test system: COLO 205
[3] = test system: SF-295
[4] = test system: SK-OV-3
[5] = test system: NCI-H460
[6] = test system: MOLT-4
[7] = test system: TK-10
[8] = test system: LXFL 529
[9] = test system: LOX IMVI
[10] = test system: Malme-3M
[11] = test system: UACC-62
[12] = test system: HCC 2998
[13] = test system: SW-620
[14] = test system: SF-539
[15] = test system: A549
[16] = test system: RPMI-8226
[17] = test system: SF-268
[18] = test system: SNB-75
[19] = test system: SN12C

Measured: GI50

CCOc1c(Cc2ccccc2)c(=O)n2c3ccccc3n3c(=O)n(C)c(=O)c1c23
inactive: [1] > 100 µM | [2] > 100 µM | [3] 59.6 µM | [4] > 100 µM | [5] > 100 µM | [6] > 100 µM | [7] > 100 µM | [8] > 100 µM | [9] > 100 µM | [10] > 100 µM | [11] > 100 µM | [12] > 100 µM | [13] > 100 µM | [14] > 100 µM | [15] > 100 µM | [16] > 100 µM | [17] > 100 µM | [18] 27.2 µM | [19] > 100 µM

N#CC(C(=O)C(=O)Nc1ccc(Cl)c(Cl)c1)c1ccc(Cl)cc1 (stereo not given)
inactive: [1] > 100 µM | [2] 45.1 µM | [3] 87.9 µM | [4] > 100 µM | [5] 32.1 µM | [6] 64.7 µM | [7] > 100 µM | [8] 77.1 µM | [9] 16.7 µM | [10] 97.3 µM | [11] 30.5 µM | [12] 51.9 µM | [13] 16 µM | [14] > 100 µM | [15] 97.3 µM | [16] 35.2 µM | [17] > 100 µM | [18] > 100 µM | [19] 91 µM

O=c1oc2c3ccc4ccccc4c3n(CCN3CCCCC3)c2c2ccccc12
inactive: [1] > 87.5 µM | [2] 14.8 µM | [3] 16.8 µM | [4] 43.1 µM | [5] 4.12 µM | [6] 2.46 µM | [7] 37.2 µM | [8] 43.9 µM | [9] 31.1 µM | [10] 30.3 µM | [11] 36.3 µM | [12] 80.5 µM | [13] 18.8 µM | [14] 17.1 µM | [15] 15.6 µM | [16] > 100 µM | [17] 31.4 µM | [18] 4.98 µM | [19] > 100 µM

CCCCCCCCCOC(=S)NCCCCC
inactive: [1] 35.2 µM | [3] 47.1 µM | [4] 29.4 µM | [5] 28 µM | [6] 19 µM | [7] 18.4 µM | [8] 33.3 µM | [9] 15.6 µM | [10] 29.8 µM | [11] 29.2 µM | [12] 34.4 µM | [13] 32.7 µM | [14] 20.8 µM | [15] 28.2 µM | [16] 19.5 µM | [17] 37.2 µM | [18] 42.3 µM | [19] 26.2 µM

CN(C)CC1CCCC/C1=N/OC(=O)c1ccc(Cl)cc1 (stereo not given)
inactive: [1] > 100 µM | [2] > 100 µM | [3] > 100 µM | [4] > 100 µM | [5] > 100 µM | [6] > 100 µM | [7] > 100 µM | [8] > 100 µM | [9] > 100 µM | [10] > 100 µM | [11] > 100 µM | [12] > 100 µM | [13] > 100 µM | [14] > 100 µM | [15] > 100 µM | [16] > 100 µM | [17] > 100 µM | [18] > 100 µM | [19] > 100 µM

N=C(N)N/N=C(/CCN1CCCC1)CC(c1ccccc1)c1c(O)c2ccccc2oc1=O (stereo not given)
inactive: [1] > 100 µM | [2] > 100 µM | [3] > 100 µM | [4] > 100 µM | [7] > 100 µM | [8] > 100 µM | [9] > 100 µM | [10] > 100 µM | [11] > 100 µM | [12] > 100 µM | [13] > 100 µM | [14] > 100 µM | [15] > 100 µM | [16] > 100 µM | [17] > 100 µM | [18] > 100 µM | [19] > 100 µM

CCOC(=O)/C(=C/c1ccc(OC)c(OC)c1)C(=O)c1ccccc1
inactive: [1] 25.8 µM | [2] 16.9 µM | [3] 21.2 µM | [4] 24.2 µM | [5] 33.3 µM | [6] 17.5 µM | [7] 26.4 µM | [8] 12.2 µM | [10] 76.6 µM | [11] 13.2 µM | [12] 18.3 µM | [13] 19.4 µM | [15] 28.2 µM | [16] 10.5 µM | [17] 14.8 µM | [18] 12.4 µM | [19] > 10 µM

COC(=O)NN1C(C)=C(C(=O)OC)C2(C#N)C(C(=O)OC)=C(C)N(NC(=O)OC)C12N (stereo not given)
inactive: [1] > 100 µM | [2] > 100 µM | [4] > 100 µM | [5] > 100 µM | [6] > 100 µM | [7] > 100 µM | [8] > 100 µM | [9] > 100 µM | [10] > 100 µM | [11] > 100 µM | [12] > 100 µM | [13] > 100 µM | [14] > 100 µM | [15] > 100 µM | [16] > 100 µM | [17] > 100 µM | [19] > 100 µM

CCNC(=O)O/N=C1/C=C2CC[C@@H]3C(CC[C@@]4(C)C3CC[C@@H]4OC(=O)NCC)[C@@]2(C)CC1 (stereo not given in full)
inactive: [1] 4.99 µM | [2] 2.44 µM | [3] 2.41 µM | [4] 3.68 µM | [5] 3.46 µM | [6] 2.36 µM | [7] 2.56 µM | [8] 1.79 µM | [9] 3.32 µM | [11] 2.67 µM | [12] 4.3 µM | [13] 3.02 µM | [14] 4.32 µM | [15] 3.98 µM | [16] 2.52 µM | [18] 2.09 µM | [19] 4.28 µM

C#CC[C@]12CC(=O)CC[C@H]1CC(=O)C2
inactive: [2] > 100 µM | [4] > 100 µM | [5] > 100 µM | [6] > 100 µM | [7] > 100 µM | [8] > 100 µM | [10] > 100 µM | [11] > 100 µM | [12] > 100 µM | [13] > 100 µM | [14] > 100 µM | [15] > 100 µM | [16] > 100 µM | [17] > 100 µM | [18] > 100 µM | [19] > 100 µM

Cn1c(=O)c2nc(-c3ccc(Cl)cc3)oc2n(C)c1=O
inactive: [1] > 100 µM | [3] > 100 µM | [5] > 100 µM | [6] > 100 µM | [7] > 100 µM | [8] > 100 µM | [9] > 100 µM | [10] > 100 µM | [11] > 100 µM | [12] > 100 µM | [13] > 100 µM | [14] > 100 µM | [15] > 100 µM | [16] > 100 µM | [17] > 100 µM | [18] > 100 µM | [19] > 100 µM
